Earlier results, collected in patent publication US9351926B2 (Pharmaceutical Solutions Industry Ltd., priority 2012, dated 2016).

Key:
[1] = children, overdose
platelet aggregation = conditions: single dose 400 mg within 8 hours before or within 30 minutes after immediate release aspirin (81 mg)
[2] = low dose (e.g. 1200 mg daily); epidemiological studies

SMILES | Bioavailability (in vivo) | Excretion (in vivo) | concentration in breast milk (limited studies) | time of peak serum concentrations after ingestion (oral, empty stomach) | time of peak levels after administration (oral, taken with food) | ingested dose that may cause symptoms [1] | effect on the action of aspirin on thromboxane formation or platelet aggregation (platelet aggregation) | risk of myocardial infarction [2] | interconversion into the active [+]S species (in adults)
CC(C)Cc1ccc(C(C)C(=O)O)cc1 (racemic) [Ibuprofen, (RS)-2-(4-(2-methylpropyl)phenyl) propanoic acid] | 49-73% | Renal | very low concentrations | 45 min | 1 to 2 h | more than 400 mg/kg | decreased effect of aspirin on the formation of thromboxane or platelet aggregation | do not suggest that low dose ibuprofen (e.g. 1200 mg daily) is associated with an increased risk of myocardial infarction | 
CC(C)Cc1ccc([C@@H](C)C(=O)O)cc1 [HR-form] |  |  |  |  |  |  |  |  | ~60%
